Data set [1] concerns adipocyte differentiation. The settings on record: cited from earlier work.
The conditions of data set [2]: cited from earlier work.
Data set [3] deals with HIV-infected 1A2 cells (a subclone of CEM-SS TART cells). The data set is described as follows: Cytoprotective cell-based anti-HIV assay. The settings on record: at 78 µM.
In data set [4] the target is wild-type HIV-1 integrase (Human immunodeficiency virus type 1 group M subtype B, UniProt P04585). The data set is classed as biochemical. The settings on record: at 100 µg/mL.
The subject of a further data set is HIV integrase. To be noted: cited from earlier work.

Starred links: 1 amine or outer side, 2 acyl side, 3 side chain; linkers in the order of their positions; H or OH if unused. Non-standard residues stand in square brackets, D forms with d. Residues, ends and D or L forms follow the SMILES beside them. *: point of attachment. X1 = O=C([C@H]1CSC([C@@H](Cc2ccccc2)N[*:1])=N1)[*:2]; Allyl(1,1-Me2) = C=CC(C)(C)*

With `O=C(NCCc1ccccc1)NCCc1ccccc1` [N, N’-diphenethylurea], the “Promotion of adipocyte differentiation” value in data set [1] was “promote adipocyte differentiation”. The Antidepressant action entry in data set [2] is given as “act as an antidepressant”.

Turning to `C=CC(C)(C)O[C@H](C)[C@@H]1NC(=O)[C@H]2CSC(=N2)[C@@H](Cc2ccccc2)NC(=O)[C@@H]2CCCN2C(=O)[C@H](CO)NC(=O)[C@H](CC(C)C)NC1=O` [Compound 1, Mollamide E] (cyclo(LSP[X1]T(Allyl(1,1-Me2)))), the “HIV inhibition in cytoprotective assay at single concentration” value in data set [3] was “did not show any inhibition”. The “HIV-1 integrase inhibition at single concentration” value in data set [4] was “no activity”.

`CC(C)C[C@@H]1NC(=O)[C@@H]2CCCN2C(=O)[C@H](C(C)C)NC(=O)c2csc(n2)CNC(=O)c2csc(n2)[C@H](CCC(N)=O)NC1=O` [dolastatin 3]: in the data set on HIV integrase, the “HIV integrase inhibition activity” value is listed as “HIV integrase inhibition activity”.

In the case of `O=C(NCCc1ccccc1)NCCc1ccccc1C(=O)NCCc1ccccc1` [Compound 3, Molleurea A], the “HIV-1 integrase inhibition at single concentration” value in data set [4] is listed as “no activity”.
